Columns and labels:
[1] = system: “anxiogenic” effects of CRF; details: cited from earlier work; for effect on the “anxiogenic” effects / actions of CRF in the conflict test: rats, literature (Britton et al.)

SMILES | melting point | effect on the “anxiogenic” effects / actions of CRF in the conflict test [1] | behavioral activity alone in the operant conflict test ([1]; compound alone, without CRF, literature (Britton et al. 1988))
CCc1nc2c(-c3ccc(OC(F)(F)F)cc3Cl)ncnc2n1C(C1CC1)C1CC1 [Example 8, 6-(2-Chloro-4-trifluoromethoxyphenyl)-9-dicyclopropylmethyl-8-ethylpurine] | 119 to 120 °C |  | 
CCCC(C)n1c(CC)nc2c(-c3ccc(OC(F)F)cc3Cl)ncnc21 (centres unmarked) [Example 10, 6-(2-Chloro-4-difluoromethoxyphenyl)-8-ethyl-9-(2-pentyl)purine] | 99 to 100 °C |  | 
CNC(=O)c1cc2c(cn1)[nH]c1ccccc12 [FG7142] |  | enhanced the actions of CRF | 
CCOC(=O)c1ncn2c1CN(C)C(=O)c1cc(F)ccc1-2 [Ro15-1788] |  | reversed the effects of CRF in a dose-dependent manner | without behavioral activity alone

Source: US7045529B2, “Imidazopyrimidinyl and imidazopyri dinyl derivatives” (Bristol-Myers Squibb Company, priority 1999, dated 2006)
